pIC50: −log10 of the molar value. Where two headings read alike, the source gives them in different places.
Tests used:
cdc2/cyclinB = cdc2/cyclinB (Homo sapiens, UniProt P06493); assay: Cyclin-Dependent Kinase Assay cdc2/cyclinB
cdk2/cyclinE = cdk2/cyclinE (Homo sapiens, UniProt P24941); assay: Cyclin-Dependent Kinase Assay cdk2/cyclinE
Cdk5/p25 = Cdk5/p25 (Homo sapiens, UniProt Q00535); assay: Cyclin-Dependent Kinase 5 (cdk5) Assay; assay type: biochemical
Method: Cyclin-Dependent Kinase 5 (cdk5) Assay
Enzyme assays for IC50 determinations and kinetic evaluation were performed in 96-well filter plates (Millipore MAPH NOB 10). […] All components except histone and ATP were added to wells, and the plate was placed on a shaker for 5 minutes. The reaction was started by adding histone and [^32P]ATP, and the plate was shaken at 30° C. for 45 minutes. The reaction was terminated by addition of 0.1 mL of 150 mM phosphoric acid. The plate was kept at 4° C. for 30 minutes to allow substrate to precipitate. The wells were then washed three times with 0.2 mL of 75 mM phosphoric acid and ^32P incorporation was determined with a beta plate counter (Wallac Inc, Gaithersburg, Md.).

cdk4/D = cdk4/D (Homo sapiens, UniProt P11802); assay: Cyclin-Dependent Kinase 4 (cdk4) Assay; assay type: biochemical
cdk2/cyclinA = cdk2/cyclinA (Homo sapiens, UniProt P24941); assay: Cyclin-Dependent Kinase Assay cdk2/cyclinA

cdk4/D, sequence (P11802 whole entry): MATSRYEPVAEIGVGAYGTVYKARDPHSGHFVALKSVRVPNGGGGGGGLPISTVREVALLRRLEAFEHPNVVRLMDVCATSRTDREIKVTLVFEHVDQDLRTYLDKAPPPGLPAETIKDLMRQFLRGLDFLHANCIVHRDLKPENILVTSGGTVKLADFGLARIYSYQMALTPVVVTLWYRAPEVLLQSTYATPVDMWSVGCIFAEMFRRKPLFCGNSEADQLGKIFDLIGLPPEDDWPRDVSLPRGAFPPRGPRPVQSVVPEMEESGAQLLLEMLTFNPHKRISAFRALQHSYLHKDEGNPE
cdk4/D, sequence (P24385 whole entry, further chain): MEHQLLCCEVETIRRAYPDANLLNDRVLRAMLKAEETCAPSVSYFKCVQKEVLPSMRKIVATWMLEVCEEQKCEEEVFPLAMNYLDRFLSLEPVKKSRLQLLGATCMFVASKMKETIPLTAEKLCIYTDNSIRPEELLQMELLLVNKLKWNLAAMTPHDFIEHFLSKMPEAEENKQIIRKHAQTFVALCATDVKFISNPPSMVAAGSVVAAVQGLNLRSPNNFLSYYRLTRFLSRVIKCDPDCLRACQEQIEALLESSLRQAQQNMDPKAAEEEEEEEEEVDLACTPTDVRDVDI
cdc2/cyclinB, sequence (P06493 whole entry): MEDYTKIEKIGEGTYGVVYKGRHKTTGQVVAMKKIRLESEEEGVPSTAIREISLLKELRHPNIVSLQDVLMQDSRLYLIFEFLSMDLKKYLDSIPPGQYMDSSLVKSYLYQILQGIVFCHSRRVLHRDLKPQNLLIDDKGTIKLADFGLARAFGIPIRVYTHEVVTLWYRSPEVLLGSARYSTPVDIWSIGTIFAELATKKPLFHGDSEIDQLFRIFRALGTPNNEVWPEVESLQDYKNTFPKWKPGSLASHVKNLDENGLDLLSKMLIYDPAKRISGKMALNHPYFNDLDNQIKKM
cdc2/cyclinB, sequence (P14635 whole entry, further chain): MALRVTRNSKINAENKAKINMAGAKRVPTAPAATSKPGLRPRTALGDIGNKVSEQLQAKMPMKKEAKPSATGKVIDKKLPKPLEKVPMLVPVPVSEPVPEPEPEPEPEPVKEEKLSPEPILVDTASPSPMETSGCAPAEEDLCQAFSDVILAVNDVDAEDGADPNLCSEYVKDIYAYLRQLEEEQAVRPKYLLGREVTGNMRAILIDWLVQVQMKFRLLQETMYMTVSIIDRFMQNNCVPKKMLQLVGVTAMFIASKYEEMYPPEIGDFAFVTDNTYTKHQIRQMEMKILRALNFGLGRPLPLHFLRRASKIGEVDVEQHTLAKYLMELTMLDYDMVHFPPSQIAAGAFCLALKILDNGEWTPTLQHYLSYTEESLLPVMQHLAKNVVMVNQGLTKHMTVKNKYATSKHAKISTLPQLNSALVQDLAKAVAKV

| pIC50 (cdc2/cyclinB) | pIC50 (cdk2/cyclinE; cdk2/E IC50, Table 1) | pIC50 (Cdk5/p25; Table 1) | pIC50 (cdk4/D; Table 1, read-out: cdk4/D IC50) | melting point [°C] | pIC50 (cdk2/cyclinE; Cdk2/E IC50, Table 3) | pIC50 (cdk2/cyclinA; Cdk2/A IC50, Table 3) | pIC50 (Cdk5/p25; Table 3) | pIC50 (cdk4/D; Table 3, read-out: Cdk4 IC50) | pIC50 (cdk2/cyclinA; cdk2/A IC50, Table 1) | Compound |
| --- | --- | --- | --- | --- | --- | --- | --- | --- | --- | --- |
|  |  |  |  | > 220 | 6.66 | 7.21 | 7.82 | 6.59 |  | CC(C)n1c(=O)ccc2cnc(Nc3ccc(O)cc3)nc21 [Example 624, 8-Isopropyl-2-(4-hydroxy-phenylamino)-8H-pyrido[2,3-]pyrimidin-7-one] |
|  |  |  |  | 202 to 203 | 6.12 | 6.53 | 7.68 | 5.20 |  | CC(C)n1c(=O)ccc2cnc(Nc3cccc([N+](=O)[O-])c3)nc21 [Example 623, 8-Isopropyl-2-(3-nitro-phenylamino)-8H-pyrido[2,3-d]pyrimidin-7-one] |
|  |  | 7.28 |  | 215 to 217 | 6.25 | 6.38 | 7.49 | 5.91 |  | CCn1c(=O)ccc2cnc(Nc3ccc(F)cc3)nc21 [Example 88, 8-Ethyl-2-(4-fluorophenylamino)-8H-pyrido[2,3-d]pyrimidin-7-one] |
|  |  | 7.82 |  | 170 to 171 |  |  |  |  |  | CC(C)Cn1c(=O)ccc2cnc(Nc3ccccc3)nc21 [Example 42, 8-Isobutyl-2-phenylamino-8H-pyrido[2,3-d]pyrimidin-7-one] |
|  |  | 6.23 |  | 178 to 180 |  |  |  |  |  | CCn1c(=O)c(C)cc2cnc(Nc3ccccc3)nc21 [Example 83, 8-Ethyl-6-methyl-2-phenylamino-8H-pyrido[2,3-d]pyrimidin-7-one] |
|  |  |  |  | 153 to 155 | 6.24 | 6.92 | 8.01 | 6.21 |  | COc1ccc(Nc2ncc3ccc(=O)n(C(C)C)c3n2)cc1 [Example 111, 8-Isopropyl-2-(4-methoxy-phenylamino)-8H-pyrido[2,3-d]pyrimidin-7-one] |
|  |  | 6.66 |  | 169 to 171 |  |  |  |  |  | CCn1c(=O)ccc2cnc(Nc3ccc(OCCOC)cc3)nc21 [Example 57, 8-Ethyl-2-[4-(2-methoxyethoxy)phenylamino]-8H-pyrido[2,3-d]pyrimidin-7-one] |
|  |  | 7.19 |  | 189 to 191 |  |  |  |  |  | CCn1c(=O)ccc2cnc(Nc3ccc(N(C)C)cc3)nc21 [Example 93, 2-(4-Dimethylamino-phenylamino)-8-ethyl-8H-pyrido[2,3-d]pyrimidin-7-one] |
|  |  | 5.35 |  | 92 to 93 |  |  |  |  |  | CCn1c(=O)ccc2cnc(Nc3cccc(F)c3OC)nc21 [Example 91, 8-Ethyl-2-(3-fluoro-2-methoxyphenylamino)-8H-pyrido[2,3-d]pyrimidin-7-one] |
|  | 4.47 | 6.51 | 6.03 | 215 to 216 |  |  |  |  |  | O=c1ccc2cnc(Nc3ccccc3)nc2n1Cc1ccccc1 [Example 35, 8-Benzyl-2-phenylamino-8H-pyrido[2,3-d]pyrimidin-7-one] |
|  |  |  |  | 244 to 247 | 5.77 | 5.94 | 7.05 | 5.26 |  | Cn1c(=O)ccc2cnc(Nc3ccccc3)nc21 [Example 61, 8-Methyl-2-phenylamino-8H-pyrido[2,3-d]pyrimidin-7-one] |

Further lines, the molecule ahead of its results:

| Compound | pIC50 (cdc2/cyclinB) | pIC50 (cdk2/cyclinE; cdk2/E IC50, Table 1) | pIC50 (Cdk5/p25; Table 1) | pIC50 (cdk4/D; Table 1, read-out: cdk4/D IC50) | melting point [°C] | pIC50 (cdk2/cyclinE; Cdk2/E IC50, Table 3) | pIC50 (cdk2/cyclinA; Cdk2/A IC50, Table 3) | pIC50 (Cdk5/p25; Table 3) | pIC50 (cdk4/D; Table 3, read-out: Cdk4 IC50) | pIC50 (cdk2/cyclinA; cdk2/A IC50, Table 1) |
| --- | --- | --- | --- | --- | --- | --- | --- | --- | --- | --- |
| O=c1ccc2cnc(Nc3ccc(N4CCC(CCCO)CC4)cc3)nc2n1C1CCCC1 [Example 197, 8-Cyclopentyl-2-{4-[4-(3-hydroxy-propyl)-piperidin-1-yl]-phenylamino]-8H-pyrido[2,3-d]pyrimidin-7-one] | 5.13 | 5.63 | 6.90 | 7.47 | 208 to 209 |  |  |  |  |  |
| CCN(CC)CCOc1ccc(Nc2ncc3ccc(=O)n(C4CC4)c3n2)cc1 [Example 134, 8-Cyclopropyl-2-[4-(2-diethylamino-ethoxy)-phenylamino]-8H-pyrido[2,3-d]pyrimidin-7-one] |  |  | 6.49 | 7.28 | 119 to 121 |  |  |  |  |  |
| O=c1ccc2cnc(Nc3ccc(N4CCC(CCO)CC4)cc3)nc2n1C1CCCC1 [Example 196] |  | 7.33 | 6.91 | 7.77 | 199 to 200 |  |  |  |  |  |
| Cc1cc(C)n(-c2ccc(Nc3ncc4ccc(=O)n(C5CCCC5)c4n3)cc2)n1 [Example 195, 8-Cyclopentyl-2-[4-(3,5-dimethyl-pyrazol-1-yl)-phenylamino]-8H-pyrido[2,3-d]pyrimidin-7-one] |  |  | 6.81 | 6.88 | 169 to 171 |  |  |  |  |  |
| O=c1ccc2cnc(Nc3ccc(N4CCC(O)CC4)cc3)nc2n1C1CCCC1 [Example 198, 8-Cyclopentyl-2-[4-(4-hydroxy-piperidin-1-yl)-phenylamino]-8H-pyrido[2,3-d]pyrimidin-7-one] | 6.93 | 7.36 | 7.72 | 7.82 | 216 to 217 |  |  |  |  |  |
| CCn1c(=O)ccc2cnc(Nc3ccc(N4CCOCC4)cc3)nc21 [Example 79, 8-Ethyl-2-(4-morpholin-4-yl-phenylamino)-8H-pyrido[2,3-d]pyrimidin-7-one] |  |  | 6.97 |  | 227 to 228 |  |  |  |  |  |
| CCn1c(=O)c(C)cc2cnc(Nc3ccc(N4CCN(C)CC4)cc3)nc21 [Example 84, 8-Ethyl-6-methyl-2-[4-(4-methyl-piperazin-1-yl)-phenylamino]-8H-pyrido[2,3-d]pyrimidin-7-one] |  |  | 6.12 |  | 198 to 200 |  |  |  |  |  |
| O=c1ccc2cnc(Nc3ccc(N4CCC(CCCO)CC4)cc3)nc2n1C1CC2CCC1C2 (stereo not shown) [Example 214, 8-Bicyclo[2.2.1]hept-2-yl-2-{4-[4-(3-hydroxy-propyl)-piperidin-1-yl]-phenylamino}-8H-pyrido[2,3-d]pyrimidin-7-one] |  | 6.90 | 5.48 | 8.10 | 223 |  |  |  |  | 6.69 |
| O=c1ccc2cnc(Nc3ccc(N4CCCCC4)cc3)nc2n1C1CCOCC1 [Example 211, 2-(4-Piperidin-1-yl-phenylamino)-8-(tetrahydro-pyran-4-yl)-8H-pyrido[2,3-d]pyrimidin-7-one] |  | 5.12 | 6.47 | 6.82 | 254 to 255 |  |  |  |  | 6.24 |
| O=c1ccc2cnc(Nc3ccc(-n4cccc4)cc3)nc2n1C1CCCC1 [Example 190, 8-Cyclopentyl-2-(4-pyrrol-1-yl-phenylamino)-8H-pyrido[2,3-d]pyrimidin-7-one] |  | 6.92 | 7.51 | 6.86 | 189 to 190 |  |  |  |  |  |
| O=c1ccc2cnc(Nc3cccc(N4CCCCC4)c3)nc2n1C1CCCC1 [Example 202, 8-Cyclopentyl-2-(3-piperidin-1-yl-phenylamino)-8H-pyrido[2,3-d]pyrimidin-7-one] |  |  | 7.11 | 6.18 | 90 to 91 |  |  |  |  |  |
| O=c1ccc2cnc(Nc3ccc(-c4ccccc4)cc3)nc2n1C1CC2CCC1C2 (stereo not shown) [Example 223, 8-Bicyclo[2.2.1]hept-2-yl-2-(biphenyl-4-ylamino)-8H-pyrido[2,3-d]pyrimidin-7-one] |  | 5.71 | 6.23 |  | 255 to 257 |  |  |  |  | 4.74 |
| CC1CCCN(c2ccc(Nc3ncc4ccc(=O)n(C5CCCCC5)c4n3)cc2)C1 (stereo not shown) [Example 175, 8-Cyclohexyl-2-[4-(3-methyl-piperidin-1-yl)-phenylamino]-8H-pyrido[2,3-d]pyrimidin-7-one] |  | 6.36 | 6.16 | 6.57 | 189 to 190 |  |  |  |  | 6.15 |
| CN1CCN(c2ccc(Nc3ncc4ccc(=O)n(CCOCc5ccccc5)c4n3)cc2)CC1 [Example 140] |  | 4.63 | 5.29 |  | 183 to 191 |  |  |  |  | 4.87 |
| O=c1ccc2cnc(Nc3cccc(N4CCCCC4)c3)nc2n1C1CCCCC1 [Example 203, 8-Cyclohexyl-2-(3-piperidin-1-yl-phenylamino)-8H-pyrido[2,3-d]pyrimidin-7-one] |  |  | 7.08 | 6.30 | 164 to 165 |  |  |  |  |  |
| CCN(CC)CCOc1ccc(Nc2ncc3ccc(=O)n(C4CCCC4)c3n2)cc1 [Example 117, 8-Cyclopentyl-2-[4-(2-diethylamino-ethoxy)-phenylamino]-8H-pyrido[2,3-d]pyrimidin-7-one] |  | 6.96 | 7.72 | 8.18 | 105 to 107 |  |  |  |  | 7.37 |
| CCN(CC)CCOc1ccc(Nc2ncc3ccc(=O)n(-c4ccccc4)c3n2)cc1 [Example 118, 2-[4-(2-Diethylamino-ethoxy)-phenylamino]-8-phenyl-8H-pyrido[2,3-d]pyrimidin-7-one] |  | 5.89 | 6.63 | 6.70 | 165 to 167 |  |  |  |  | 6.69 |
| CCN(CC)CCOc1ccc(Nc2ncc3ccc(=O)n(CC)c3n2)cc1 [Example 52, 2-[4-(2-Diethylaminoethoxy)-phenylamino]-8-ethyl-8H-pyrido[2,3-d]-pyrimidin-7-one] |  |  | 6.81 |  | 128 to 129 |  |  |  |  |  |

Source: US20040224958A1, “Pyridopyrimidinone derivatives for treatment of neurodegenerative disease” (priority 2000, published 2004)
